Measurements as given in ChEMBL document CHEMBL4406911, “Discovery of Amino-cyclobutarene-derived Indoleamine-2,3-dioxygenase 1 (IDO1) Inhibitors for Cancer Immunotherapy” (ACS Med Chem Lett, 2019).
One block for each compound: values may come before it.

Columns and labels:
[1] = MRT in rat; type: ADME; conditions: in vivo
[2] = Clearance in human Hepatocyte; type: ADME, cell-based; conditions: hepatocytes, read-out: CLH
[3] = Lipophilicity, log D of compound at pH 7 by HPLC analysis; type: physicochemical; conditions: buffer
[4] = Total clearance in rat; type: ADME; conditions: in vivo
[5] = Intrinsic clearance in rat; type: ADME
[6] = Apparent permeability of compound; type: ADME; conditions: not told
[7] = Oral bioavailability in rat; type: ADME, organism-based; conditions: in vivo
[8] = Clearance in dog; type: ADME, Canis lupus familiaris; conditions: in vivo
[9] = Unbound clearance in dog; type: ADME, Canis lupus familiaris; conditions: in vivo
[10] = Half life in dog; type: ADME, Canis lupus familiaris; conditions: in vivo
[11] = Oral bioavailability in dog; type: ADME, organism-based, Canis lupus familiaris; conditions: in vivo
[12] = target: Tryptophan 2,3-dioxygenase (Homo sapiens, UniProt P48775); assay: Inhibition of TDO in human SW480 cells incubated for 48 hrs using L-tryptophan as substrate by fluorescence based assay; type: cell-based
CYP450 = CYP450 (Homo sapiens, UniProt P04798+P05177+P05181+P08684+P10632+P10635+P11509+P11712+P13584+P20813+P20815+P20853+P24462+P24903+P33260+P33261+P51589+P78329+P98187+Q02928+Q08477+Q16678+Q16696+Q5TCH4+Q6VVX0+Q7Z449+Q8TAV3+Q96SQ9+Q9HB55); assay: Inhibition of CYP450 (unknown origin); type: ADME, protein assay
[13] = target: T1, Nuclear receptor subfamily 1 group I member 2 (Homo sapiens, UniProt O75469); assay: Activation of PXR (unknown origin)
T1 sequence (O75469 whole entry): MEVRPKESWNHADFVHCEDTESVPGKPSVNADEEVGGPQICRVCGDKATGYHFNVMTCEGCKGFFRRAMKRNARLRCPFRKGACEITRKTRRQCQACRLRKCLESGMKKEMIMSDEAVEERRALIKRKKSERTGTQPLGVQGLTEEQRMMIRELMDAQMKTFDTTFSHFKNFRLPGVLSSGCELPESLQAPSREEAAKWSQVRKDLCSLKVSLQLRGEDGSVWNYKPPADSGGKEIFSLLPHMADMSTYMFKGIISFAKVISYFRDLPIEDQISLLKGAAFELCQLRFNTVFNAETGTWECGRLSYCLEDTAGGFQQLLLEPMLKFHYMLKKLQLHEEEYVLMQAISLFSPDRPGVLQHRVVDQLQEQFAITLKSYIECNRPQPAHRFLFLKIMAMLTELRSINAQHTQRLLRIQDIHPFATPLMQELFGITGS

[14] = Toxicity in rat assessed as adverse event; conditions: in vivo
[15] = Thermal stability of compound assessed as parent compound remaining measured after 3 hrs; type: physicochemical; conditions: read-out: Stability
[16] = Chemical stability of compound in 0.01 N HCl assessed as parent compound remaining measured after 3 hrs; type: physicochemical; conditions: read-out: Stability
[17] = Chemical stability of compound in 0.01 N NaOH assessed as parent compound remaining measured after 3 hrs; type: physicochemical; conditions: read-out: Stability
[18] = Chemical stability of compound in 0.1 N HCl assessed as parent compound remaining measured after 24 hrs; type: physicochemical; conditions: read-out: Stability
[19] = Chemical stability of compound in H2O2 assessed as parent compound remaining measured after 24 hrs; type: physicochemical; conditions: read-out: Stability
[20] = Chemical stability of compound in 0.1 N NaOH assessed as parent compound remaining measured after 24 hrs; type: physicochemical; conditions: read-out: Stability
[21] = Chemical stability of compound in AIBN assessed as parent compound remaining measured after 24 hrs; type: physicochemical; conditions: read-out: Stability
EMT6 [22] = assay: Antitumor activity against mouse EMT6 cells xenografted in BALB/c mouse assessed as reduction in tumor volume at 100 mg/kg, po bid and measured for weekly twice relative to control; type: functional; design: scale not given: the % may be the effect or the level left
EMT6 [23] = assay: Antitumor activity against mouse EMT6 cells xenografted in BALB/c mouse assessed as reduction in tumor volume at 100 mg/kg, po bid in presence of anti-PD1 at 5 mg/kg, […] and measured for weekly twice relative to control; type: functional; design: scale not given: the % may be the effect or the level left
[24] = target: Indoleamine 2,3-dioxygenase 1 (Rattus norvegicus, UniProt Q9ERD9); assay: Inhibition of rat IDO1 preincubated for 30 mins followed by substrate tryptophan addition and measured after 60 mins by fluorescence based assay
[25] = target: Indoleamine 2,3-dioxygenase 1 (Mus musculus, UniProt P28776); assay: Inhibition of mouse IDO1 preincubated for 30 mins followed by substrate tryptophan addition and measured after 60 mins by fluorescence based assay
[26] = Unbound clearance in rat; type: ADME; conditions: in vivo
[27] = target: T2, Indoleamine 2,3-dioxygenase 1 (Homo sapiens, UniProt P14902); assay: Inhibition of recombinant His-tagged IDO1 (unknown origin) expressed in Escherichia coli preincubated for 30 mins followed by substrate tryptophan addition and measured after 60 mins by fluorescence based assay
[28] = target: T2, Indoleamine 2,3-dioxygenase 1; assay: Inhibition of IDO1 in human HeLa cells stimulated with IFNgamma using L-tryptophan as substrate incubated for 48 hrs by fluorescence based assay; type: cell-based

T2 sequence (P14902 whole entry): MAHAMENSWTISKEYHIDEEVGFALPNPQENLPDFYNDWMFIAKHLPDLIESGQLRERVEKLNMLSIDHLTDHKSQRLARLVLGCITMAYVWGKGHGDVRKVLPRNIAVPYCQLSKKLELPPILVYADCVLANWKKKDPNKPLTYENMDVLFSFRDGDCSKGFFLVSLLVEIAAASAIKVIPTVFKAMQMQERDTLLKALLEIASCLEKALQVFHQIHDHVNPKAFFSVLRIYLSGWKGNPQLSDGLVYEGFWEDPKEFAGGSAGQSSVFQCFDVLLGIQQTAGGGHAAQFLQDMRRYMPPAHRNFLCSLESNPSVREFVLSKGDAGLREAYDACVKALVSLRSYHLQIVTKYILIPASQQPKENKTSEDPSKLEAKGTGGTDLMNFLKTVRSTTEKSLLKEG
Chain of Tryptophan 2,3-dioxygenase (P48775 whole entry): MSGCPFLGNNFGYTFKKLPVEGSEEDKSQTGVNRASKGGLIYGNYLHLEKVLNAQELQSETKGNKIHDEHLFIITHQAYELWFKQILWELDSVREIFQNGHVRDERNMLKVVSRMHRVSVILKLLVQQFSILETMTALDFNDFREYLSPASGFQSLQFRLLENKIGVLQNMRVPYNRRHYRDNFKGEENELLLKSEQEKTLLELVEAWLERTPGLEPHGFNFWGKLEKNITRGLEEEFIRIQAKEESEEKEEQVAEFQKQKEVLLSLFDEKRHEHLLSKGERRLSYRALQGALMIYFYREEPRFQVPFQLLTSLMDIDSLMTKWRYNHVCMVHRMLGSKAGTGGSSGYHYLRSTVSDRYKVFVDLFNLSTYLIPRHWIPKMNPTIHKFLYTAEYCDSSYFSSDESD
Chain of Indoleamine 2,3-dioxygenase 1 (Rattus norvegicus, UniProt Q9ERD9) (Q9ERD9 whole entry): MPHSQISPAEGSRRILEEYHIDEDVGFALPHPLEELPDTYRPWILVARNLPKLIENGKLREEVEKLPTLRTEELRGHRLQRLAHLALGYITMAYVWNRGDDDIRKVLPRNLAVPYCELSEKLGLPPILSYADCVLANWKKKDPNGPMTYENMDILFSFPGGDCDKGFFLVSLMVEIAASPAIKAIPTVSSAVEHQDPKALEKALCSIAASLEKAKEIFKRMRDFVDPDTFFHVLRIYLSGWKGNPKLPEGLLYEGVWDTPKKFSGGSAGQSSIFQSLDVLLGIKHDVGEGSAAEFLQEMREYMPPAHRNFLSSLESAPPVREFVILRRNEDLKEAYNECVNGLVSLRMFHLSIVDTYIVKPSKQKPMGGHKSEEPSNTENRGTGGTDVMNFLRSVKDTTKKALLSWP
Chain of Indoleamine 2,3-dioxygenase 1 (Mus musculus, UniProt P28776) (P28776 whole entry): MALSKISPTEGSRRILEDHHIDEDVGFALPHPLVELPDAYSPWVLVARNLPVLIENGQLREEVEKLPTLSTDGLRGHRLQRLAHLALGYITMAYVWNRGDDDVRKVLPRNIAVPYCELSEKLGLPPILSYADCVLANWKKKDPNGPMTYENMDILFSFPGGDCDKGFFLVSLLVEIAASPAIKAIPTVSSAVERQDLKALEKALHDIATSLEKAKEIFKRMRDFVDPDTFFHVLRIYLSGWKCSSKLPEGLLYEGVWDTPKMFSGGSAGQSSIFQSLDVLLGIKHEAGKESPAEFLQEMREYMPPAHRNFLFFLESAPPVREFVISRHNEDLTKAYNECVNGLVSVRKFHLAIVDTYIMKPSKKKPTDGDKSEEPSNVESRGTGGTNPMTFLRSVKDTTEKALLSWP

- MRT [1]: 0.4 h
- logD [3]: 2.7
- clearance [4]: 60 mL/min/kg
- CLint scaled [5]: 7380 mL/min/kg
Compound: Nc1nonc1/C(=N/O)N[C@H]1Cc2ccc(F)cc21

- IC50 [27]: 735 nM
- IC50 [28]: 150 nM
Compound: Nc1nonc1/C(=N/O)NC1Cc2cc(F)ccc21 (stereo not given)

- IC50 [27]: 392 nM
- IC50 [28]: 75 nM
Compound: Nc1nonc1/C(=N/O)NC1Cc2cc(F)c(F)cc21 (stereo not given)

- IC50 [27]: 43800 nM
Compound: Nc1nonc1/C(=N/O)NC1Cc2ccccc2C1

- IC50 [27]: 2750 nM
Compound: Nc1nonc1/C(=N/O)NC1CCCc2ccccc21 (stereo not given)

The remaining lines, values behind:

Compound: NS(=O)(=O)NCCSc1nonc1/C(=N/O)N[C@H]1Cc2ccc(F)cc21
- MRT [1]: 2.5 h
- CLint scaled [2]: 616 mL/min/kg
- logD [3]: 2.45
- clearance [4]: 14 mL/min/kg
- CLint scaled [5]: 977 mL/min/kg

Compound: O=C(CNc1nonc1/C(=N/O)N[C@H]1Cc2ccc(F)cc21)NCCO
- MRT [1]: 2.9 h
- CLint scaled [2]: 48 mL/min/kg
- logD [3]: 1.9 to 2
- clearance [4]: 15 mL/min/kg
- CLint scaled [5]: 112 mL/min/kg
- Papp [6]: 25 ×10⁻⁶ cm/s
- bioavailability [7]: 63%
- clearance [8]: 6 mL/min/kg
- CL free [9]: 88 mL/min/kg
- half-life [10]: 6 h
- bioavailability [11]: 67%
- IC50 [12]: > 10000 nM
- IC50 (CYP450): > 50000 nM
- EC50 [13]: > 30000 nM
- Activity [14]: Non-Toxic
- remaining at 3 h [15]: 88.4%
- remaining at 3 h [16]: 98.1%
- remaining at 3 h [17]: 97.4%
- remaining at 24 h [18]: 96.2%
- remaining at 24 h [19]: 97%
- remaining at 24 h [20]: 81.5%
- remaining at 24 h [21]: 77.1%
- Activity (EMT6 [22]): 15%
- Activity (EMT6 [23]): 79%
- IC50 [24]: 59 nM
- IC50 [25]: 28 nM
- CL free [26]: 319 mL/min/kg

Compound: NS(=O)(=O)NCCNc1nonc1/C(=N/O)N[C@H]1Cc2ccc(F)cc21
- MRT [1]: 2 h
- CLint scaled [2]: 462 mL/min/kg
- logD [3]: 2.4
- clearance [4]: 12 mL/min/kg
- CLint scaled [5]: 463 mL/min/kg

Compound: CC(=O)NCCNc1nonc1/C(=N/O)N[C@H]1Cc2ccc(F)cc21
- MRT [1]: 0.4 h
- CLint scaled [2]: 863 mL/min/kg
- clearance [4]: 51 mL/min/kg
- CLint scaled [5]: 3550 mL/min/kg

Compound: NC(=O)CNc1nonc1/C(=N/O)N[C@H]1Cc2ccc(F)cc21
- MRT [1]: 1.7 h
- CLint scaled [2]: 523 mL/min/kg
- clearance [4]: 17 mL/min/kg
- CLint scaled [5]: 499 mL/min/kg

Compound: CC(=O)NCCSc1nonc1/C(=N/O)N[C@H]1Cc2ccc(F)cc21
- MRT [1]: 1 h
- CLint scaled [2]: 354 mL/min/kg
- logD [3]: 2.46
- clearance [4]: 29 mL/min/kg
- CLint scaled [5]: 1880 mL/min/kg

Compound: O=C(CSc1nonc1/C(=N/O)N[C@H]1Cc2ccc(F)cc21)NCCO
- MRT [1]: 0.8 h
- CLint scaled [2]: 108 mL/min/kg
- logD [3]: 2
- clearance [4]: 42 mL/min/kg
- CLint scaled [5]: 2500 mL/min/kg
